Reference: the NIST ThermoML archive (doi:10.1021/je034102r)
Numbers after ± are expanded uncertainties.

Assay: molar heat capacity at constant pressure
Conditions: 101.33 kPa, Liquid, heat bridge-scanning calorimeter

Measured: molar heat capacity at constant pressure

CCCCn1cc[n+](C)c1.F[P-](F)(F)(F)(F)F [1-butyl-3-methylimidazolium hexafluorophosphate]
422.29 ± 8.5 J/K/mol: 318 K | 318.13 K
420.87 ± 8.5 J/K/mol: 315.18 K | 315.31 K | 315.43 K | 315.56 K | 315.7 K | 315.82 K | 316.08 K
420.59 ± 8.5 J/K/mol: 314.54 K | 314.67 K | 314.93 K | 315.05 K
410.64 ± 8.2 J/K/mol: 301.07 K
411.21 ± 8.2 J/K/mol: 301.45 K
423.15 ± 8.5 J/K/mol: 319.02 K | 320.05 K | 320.18 K | 320.3 K
425.71 ± 8.5 J/K/mol: 324.91 K | 325.04 K | 325.17 K | 325.29 K | 325.42 K | 325.67 K
413.2 ± 8.2 J/K/mol: 303.63 K | 303.75 K | 303.89 K | 304.02 K | 304.15 K | 304.27 K
416.61 ± 8.2 J/K/mol: 308.13 K | 308.39 K | 308.51 K | 308.77 K | 308.89 K
417.46 ± 8.2 J/K/mol: 309.53 K | 309.66 K | 309.8 K | 309.93 K | 310.05 K | 310.18 K
415.19 ± 8.2 J/K/mol: 306.08 K | 306.2 K | 306.46 K | 306.59 K
410.93 ± 8.2 J/K/mol: 301.19 K | 301.32 K | 301.57 K
420.02 ± 8.5 J/K/mol: 313.65 K | 313.78 K | 313.91 K | 314.04 K | 314.16 K | 314.29 K
414.34 ± 8.2 J/K/mol: 305.19 K | 305.31 K | 305.44 K
417.75 ± 8.2 J/K/mol: 310.31 K | 310.44 K
423.43 ± 8.5 J/K/mol: 320.56 K | 320.69 K
413.49 ± 8.2 J/K/mol: 304.4 K | 304.53 K
420.31 ± 8.5 J/K/mol: 314.42 K
415.76 ± 8.2 J/K/mol: 307.1 K | 307.22 K | 307.48 K
418.88 ± 8.2 J/K/mol: 312.37 K | 312.49 K
415.47 ± 8.2 J/K/mol: 306.72 K | 306.84 K | 306.97 K
418.03 ± 8.2 J/K/mol: 310.56 K
412.06 ± 8.2 J/K/mol: 302.35 K | 302.48 K | 302.61 K
426.27 ± 8.5 J/K/mol: 325.92 K | 326.18 K | 326.31 K | 326.43 K | 326.81 K
423.72 ± 8.5 J/K/mol: 320.81 K | 320.94 K | 321.06 K
418.32 ± 8.2 J/K/mol: 310.84 K | 310.97 K | 311.09 K | 311.22 K | 311.47 K | 311.86 K
413.77 ± 8.2 J/K/mol: 304.66 K
422.86 ± 8.5 J/K/mol: 318.76 K | 319.29 K | 319.42 K | 319.54 K | 319.67 K | 319.8 K | 319.92 K
421.16 ± 8.5 J/K/mol: 315.95 K | 316.2 K | 316.48 K
409.22 ± 8.2 J/K/mol: 300.05 K
414.05 ± 8.2 J/K/mol: 304.78 K | 304.91 K
410.08 ± 8.2 J/K/mol: 300.3 K | 300.43 K
419.74 ± 8.5 J/K/mol: 313.38 K
416.9 ± 8.2 J/K/mol: 308.64 K | 309.02 K | 309.28 K
410.36 ± 8.2 J/K/mol: 300.55 K | 300.81 K | 300.94 K
422.58 ± 8.5 J/K/mol: 318.26 K | 318.38 K | 318.51 K | 318.64 K | 318.89 K
411.78 ± 8.2 J/K/mol: 302.08 K
416.04 ± 8.2 J/K/mol: 307.61 K | 307.73 K | 308.01 K
425.99 ± 8.5 J/K/mol: 325.54 K | 325.8 K
419.17 ± 8.5 J/K/mol: 312.62 K | 312.75 K
412.35 ± 8.2 J/K/mol: 302.73 K | 302.86 K | 302.99 K | 303.12 K
421.73 ± 8.5 J/K/mol: 316.73 K | 316.86 K | 316.98 K | 317.11 K | 317.24 K | 317.36 K
424.85 ± 8.5 J/K/mol: 323.63 K | 323.76 K | 323.88 K
424.28 ± 8.5 J/K/mol: 321.83 K | 322.11 K | 322.23 K | 322.74 K | 322.87 K
414.62 ± 8.2 J/K/mol: 305.57 K | 305.82 K
421.44 ± 8.5 J/K/mol: 316.6 K | 317.49 K
411.5 ± 8.2 J/K/mol: 301.7 K | 301.83 K | 301.95 K
419.45 ± 8.5 J/K/mol: 312.87 K | 313 K | 313.13 K | 313.25 K
416.33 ± 8.2 J/K/mol: 307.35 K | 308.26 K
426.56 ± 8.5 J/K/mol: 326.56 K | 326.68 K
412.92 ± 8.2 J/K/mol: 303.24 K | 303.37 K
409.79 ± 8.2 J/K/mol: 300.17 K
425.42 ± 8.5 J/K/mol: 324.39 K | 324.51 K | 324.64 K
424 ± 8.5 J/K/mol: 321.19 K | 321.32 K | 321.44 K | 321.57 K | 321.71 K | 322.36 K | 322.49 K | 322.61 K
425.14 ± 8.5 J/K/mol: 324.01 K | 324.14 K | 324.26 K
424.57 ± 8.5 J/K/mol: 322.99 K | 323.12 K | 323.38 K | 323.5 K
422.01 ± 8.5 J/K/mol: 317.75 K | 317.88 K
417.18 ± 8.2 J/K/mol: 309.41 K
418.6 ± 8.2 J/K/mol: 311.35 K | 311.6 K | 311.73 K | 312.11 K | 312.24 K
414.91 ± 8.2 J/K/mol: 305.7 K | 305.95 K
